Literature values as cited in patent publication US20140242195A1, “AUTOMOTIVE SURFACE CONDITIONING SYSTEM” (American Covers, Inc., priority 2013, published 2014).

Details: component of the composition

| Compound | Vapor Pressure (mmHg) |
| --- | --- |
| OCC(O)CO [Glycerin] | 0.003 |
| CCOCCOCCO [CARBITOL, diethylene glycol monoethyl ether] | 0.07 |
